Entries after “also recorded” stand apart in the source; their conditions may differ. Read-outs that look alike come from different tables or passages of the source. Bounds are passed on as bounds.

The record followed here is PMC5431432, “Low-basicity 5-HT7 Receptor Agonists Synthesized Using the van Leusen Multicomponent Protocol” (Scientific Reports, 2017).

The target of data set [1] is human serotonin 5-HT7bR (Homo sapiens, UniProt P34969). As to the kind of experiment: Radioligand binding, [3H]-5-CT displacement. Conditions: for Ki: read-out: K i (5-HT7R).
Sequence of human serotonin 5-HT7bR (P34969 1-432 limits assumed): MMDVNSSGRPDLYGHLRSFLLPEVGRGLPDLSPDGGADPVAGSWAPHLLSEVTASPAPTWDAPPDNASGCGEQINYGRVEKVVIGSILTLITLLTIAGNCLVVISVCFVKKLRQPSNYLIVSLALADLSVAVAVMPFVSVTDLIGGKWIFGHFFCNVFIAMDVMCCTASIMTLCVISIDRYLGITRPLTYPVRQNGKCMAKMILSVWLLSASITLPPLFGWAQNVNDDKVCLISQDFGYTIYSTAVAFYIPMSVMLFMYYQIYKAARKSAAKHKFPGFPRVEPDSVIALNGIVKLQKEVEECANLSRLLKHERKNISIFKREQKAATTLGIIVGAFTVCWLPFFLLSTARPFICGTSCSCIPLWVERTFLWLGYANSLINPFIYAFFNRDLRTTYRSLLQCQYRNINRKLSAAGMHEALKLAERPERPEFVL
Data set [2] concerns the target T1, α2C (Homo sapiens, UniProt P18825).
T1 construct: Eurofins Cerep (contract screen)
T1 sequence (P18825 1-462): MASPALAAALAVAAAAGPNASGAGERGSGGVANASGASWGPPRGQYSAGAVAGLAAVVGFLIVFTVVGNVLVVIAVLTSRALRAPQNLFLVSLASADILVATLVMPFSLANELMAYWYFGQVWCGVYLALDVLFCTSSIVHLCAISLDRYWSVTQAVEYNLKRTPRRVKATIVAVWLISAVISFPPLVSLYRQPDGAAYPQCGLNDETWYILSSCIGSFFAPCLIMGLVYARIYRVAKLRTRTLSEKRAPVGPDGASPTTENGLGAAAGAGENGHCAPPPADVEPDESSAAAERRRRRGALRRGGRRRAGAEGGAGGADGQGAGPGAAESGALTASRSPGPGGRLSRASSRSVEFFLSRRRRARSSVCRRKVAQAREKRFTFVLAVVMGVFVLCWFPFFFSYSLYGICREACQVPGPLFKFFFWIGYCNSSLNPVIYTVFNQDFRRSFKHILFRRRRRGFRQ
The experiment in a line: Eurofins Cerep binding screen α2C. Conditions: 10^−6 M; read-out: % Inhibition of control binding α2C.

Data set [3] has as its target T2, D3 (Homo sapiens, UniProt P35462).
T2 construct: Eurofins Cerep (contract screen)
As to the kind of experiment: Eurofins Cerep binding screen D3. The note with it: 10^−6 M; read-out: % Inhibition of control binding D3.

Data set [4] can be described thus: Water solubility (statement). It counts as physicochemical.
Data set [5] addresses T3, CB1 (Homo sapiens, UniProt P21554).
T3 construct: Eurofins Cerep (contract screen)
As to the kind of experiment: Eurofins Cerep binding screen CB1. The note with it: 10^−6 M; read-out: % Inhibition of control binding CB1.

The target of data set [6] is T4, H1 (Homo sapiens, UniProt P35367).
T4 construct: Eurofins Cerep (contract screen)
T4 sequence (P35367 whole entry): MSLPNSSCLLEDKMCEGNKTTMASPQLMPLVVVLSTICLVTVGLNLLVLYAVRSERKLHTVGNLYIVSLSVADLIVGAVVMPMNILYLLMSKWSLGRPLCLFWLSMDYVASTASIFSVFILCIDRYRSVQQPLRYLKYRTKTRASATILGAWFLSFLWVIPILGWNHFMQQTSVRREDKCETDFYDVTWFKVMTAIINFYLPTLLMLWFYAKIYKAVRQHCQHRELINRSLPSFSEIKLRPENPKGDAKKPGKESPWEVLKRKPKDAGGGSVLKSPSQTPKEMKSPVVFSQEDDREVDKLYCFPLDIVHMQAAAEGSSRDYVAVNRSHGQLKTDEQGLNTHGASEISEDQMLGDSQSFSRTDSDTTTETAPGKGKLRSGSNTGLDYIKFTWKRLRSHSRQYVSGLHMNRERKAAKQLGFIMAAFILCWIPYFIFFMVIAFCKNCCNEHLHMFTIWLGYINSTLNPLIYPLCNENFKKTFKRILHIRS
The experiment in a line: Eurofins Cerep binding screen H1. Conditions: 10^−6 M; read-out: % Inhibition of control binding H1.

Data set [7] has as its target T5, CYP3A4 (Homo sapiens, UniProt P08684). The experiment in a line: in vitro. Conditions: CYP3A4 enzyme (Promega P450-Glo luminescent assay).
Procedure: (§1) Drug-drug interactions (DDI) – the influence on CYP3A4 activity
(§2) The luminescent CYP3A4 P450-Glo™ assay and protocol were provided by Promega (Madison, WI, USA)
(§3) was obtained from Sigma-Aldrich (St. Louis, USA). The enzymatic reactions were performed in white
(§4) polystyrene, flat-bottom Nunc™ MicroWell™ 96-Well Microplates (Thermo Scientific, Waltham, MA
(§5) USA). The luminescence signal was measured with a microplate reader in luminescence mode (EnSpire,
PerkinElmer, Waltham, MA USA).
The final concentrations of 1e and
to calculate IC50 values.
Data set [8] addresses T6, 5-HT2B (Homo sapiens, UniProt P41595).
T6 construct: Eurofins Cerep (contract screen)
As to the kind of experiment: Eurofins Cerep binding screen 5-HT2B. The note with it: read-out: % Inhibition of control binding 5-HT2B; for inhibition at 1 µM: 10^−6 M (1 µM); for inhibition at 0.01 µM: 10^−8 M (10 nM).

Data set [9] concerns the target T7, 5-HT5A (Homo sapiens, UniProt P47898).
T7 construct: Eurofins Cerep (contract screen)
The experiment in a line: Eurofins Cerep binding screen 5-HT5A. Conditions: 10^−6 M; read-out: % Inhibition of control binding 5-HT5A.

Data set [10] deals with HepG2 cells. As to the kind of experiment: MTS cytotoxicity assay HepG2. In kind it is cell-based. Conditions: 72 h incubation, 0.1–100 μM.
Procedure: (§6) The cell line was cultured in Dulbecco’s Modified Eagle’s Medium DMEM (Gibco) with 10% fetal bovine
(§7) The cells were cultured in Modified Eagle’s Medium
(§8) MEM with 100 mg/ml streptomycin and 100 U/ml penicillin, 1%, Non Essential Amino Acids (NEAA) and
(§9) solutions of examined compounds in DMSO were diluted into fresh growth medium and added into the
(§10) microplates at the final concentrations 0.1 μM – 100 μM. The well-known cytostatic compound
(§11) doxorubicin (DX) 1 μM was used as a positive control for both cell lines. Additionally, carbonyl cyanide
(§12) 3-chlorophenylhydrazone (CCCP) 10 μM was used as positive control mitochondrial toxin for hepatocytes.
(§13) Proliferation Assay, Promega) was added to the each well and the cells were incubated under the same
(§14) conditions for 4 h. The absorbance of the samples was measured using a microplate reader (PerkinElmer) at
For data set [11], the system named is HEK-293 cells. The experiment in a line: MTS cytotoxicity assay HEK-293. In kind it is cell-based, human. Conditions: 72 h incubation, 0.1–100 μM.
Procedure: as §6, §7, §8, §9, §10, §11, §12, §13, §14
Data set [12] has as its target T8, 5-HT1B (Homo sapiens, UniProt P28222).
T8 construct: Eurofins Cerep (contract screen)
The experiment in a line: Eurofins Cerep binding screen 5-HT1B. The note with it: 10^−6 M; read-out: % Inhibition of control binding 5-HT1B.

Data set [13] has as its target human 5-HT7 receptor (Homo sapiens, UniProt P34969). The experiment in a line: Functional assay, cAMP production (TR-FRET) in HEK293 cells overexpressing 5-HT7R. In kind it is cell-based. Conditions: for EC50: hydrochloride salts.
A short description of data set [14]: Metabolic stability in human liver microsomes. Conditions: for CLint scaled at 50 μM: human, read-out: Clint, metabolic clearance. It counts as in vitro ADME.
Procedure: The in vitro evaluation of metabolic stability was performed by using human liver microsomes
(HLMs) (Sigma-Aldrich, St. Louis, MO, USA). The reaction mixtures consisted of 50 μM of tested
compounds with microsomes (1 mg/ml) in 10 mM tris-HCl buffer.
preincubation, the 50 µL of NADPH Regeneration System (Promega, Madison, WI, USA) was
added to initiate the reaction. The reactions were terminated by the addition of the cold methanol
The mixtures were centrifuged
The course of reaction was followed by using the
analyte/IS peak height ratio values.
Mass spectra were recorded on a UPLC-MS/MS system consisted of a Waters ACQUITY® UPLC® (Waters Corporation, Milford, MA, USA) coupled to a Waters TQD mass spectrometer
(electrospray ionization mode ESI-tandem quadrupole). Chromatographic separations were carried
particle size, equipped with Acquity UPLC BEH C18 VanGuard pre-column; 2.1 × 5 mm, and
The column was maintained at 40 °C, and eluted under gradient conditions
acid (0.1%, v/v); eluent B: acetonitrile/formic acid (0.1%, v/v). Chromatograms were made using
sampling rate 20 points/s. MS detection settings of Waters TQD mass spectrometer were as
600 L h−1, cone gas flow 100 L h−1, capillary potential 3.00 kV, cone potential 40 V. Nitrogen was
used for both nebulizing and drying gas. The data were obtained in a scan mode ranging from 50 to
2000 m/z in time 1.0 s intervals. Data acquisition software was MassLynx V 4.1 (Waters). The
For data set [15], the system named is α1. The experiment in a line: Eurofins Cerep binding screen α1. Conditions: 10^−6 M.
The target of data set [16] is T5, CYP3A4. As to the kind of experiment: biochemical.
Procedure: as §1, §2, §3, §4, §5
PerkinElmer, Waltham, MA USA).
The final concentrations of 1e and
to calculate IC50 values.
Data set [17] relates to MK-801 induced impairment in novel object recognition. As to the kind of experiment: Novel object recognition test, reversal of MK-801 induced impairment. Also on record: species or system Albino Swiss mice. The note with it: mouse, in vivo.
Procedure: The experiment was conducted on Albino Swiss mice (see Supporting Information).
trained and tested in a black, plastic, open field (50 × 30 cm, 35 cm high) with the floor divided into 20-cm
The open field was in a dark room illuminated only by a 25 W bulb. On the first day
(adaptation) the animals were allowed to explore the open field for 10 min. On the next day (training, T1) the
animals were administered the tested drugs, placed in the apparatus and allowed to explore two identical
objects (cylindrical objects with walls painted white, 7 cm in diameter, 11 cm high) for the time required to
complete 15 s of exploration of either object. For the retention trial (T2) conducted one h later, one of the
objects presented in T1 was replaced with a novel object (a prism-shaped object with walls painted black,
5 cm wide, 14 cm high). The duration of exploration of each object (i.e., sitting in close proximity to the
objects or sniffing or touching them) during 5 min time was video recorded and measured separately by a
trained observer. All drugs were administered before the training (T1) session.
Data set [18] can be described thus: Pharmacokinetics after i.p. administration in mice. It counts as in vivo, CD-1 mice.
Procedure: A group of 32 adult male mice (CD-1, 18-21 g) were used in the experiment.
During the habituation period the groups of 4 mice were kept in a plastic cage (252 mm x 167 cm x
140 cm) at a controlled room temperature (22±2°C), humidity (55±10%), full spectrum cold white light
access to standard laboratory pellet and tap water.
administered by an intraperitoneal (i.p.) administration at a dose of 5 mg/kg. Blood samples were collected
administration. The blood and brain samples were collected under general anesthesia induced by i.p.
injections of 50 mg/kg ketamine plus 8 mg/kg xylazine. The blood samples were taken into heparinized
tubes, immediately centrifuged at 3500 rpm for 10 min and plasma was collected. The brain and plasma
samples were immediately frozen at - 80°C for LC/MS/MS analysis.
Pharmacokinetic parameters were calculated by a non-compartmental approach from the average
elimination rate constant (λz) was calculated by linear regression of time versus log concentration. Next, the
area under the mean serum and tissue concentration versus time curve (AUC0→t) was estimated using the
log-linear trapezoidal rule (Eq. 1), where Cn is the concentration of last sampling of each compound.
Area under the first-moment curve (AUMC0→t) was estimated by calculation of the total area under the
first-moment curve using the equation 2, where tn is the time of last sampling.
Mean residence time (MRT) was calculated as:
Total clearance (ClT) was calculated as:
Volume of distribution (Vd) was calculated as:
The quantification of studied compound in plasma and brain samples was done using UPLC Agilent 1100
system (Agilent Technologies, Waldbronn, Germany) coupled to the triple quadrupole mass spectrometer
API 2000 (ABSciex, Framingham, Massachusetts, USA) equipped with electrospray ion source. After
Milford, Massachusetts, USA) analytical column. The mobile phase consisted of ACN with 0.1% formic
acid (A) and water with 0.1% formic acid (B) were delivered in gradient elution started with 90% of eluent
B, increasing during 2 min to 90% of eluent A, maintained to 3 min, and then returned during 5 min to 90% of
eluent B, and maintained 90% of eluent B during 5 min at a flow rate of 300 µL/min. The total time of
analysis was 10 min. Electrospray ionization process was performed in positive ionization and the data
(nebivolol). The ion spray source settings were as follows: spray voltage: 5.5 kV, heater temperature:
400°C, curtain gas: 20 psi, source gas 1: 40 psi, source gas 2: 20 psi.

T6 sequence (P41595 whole entry, species assumed): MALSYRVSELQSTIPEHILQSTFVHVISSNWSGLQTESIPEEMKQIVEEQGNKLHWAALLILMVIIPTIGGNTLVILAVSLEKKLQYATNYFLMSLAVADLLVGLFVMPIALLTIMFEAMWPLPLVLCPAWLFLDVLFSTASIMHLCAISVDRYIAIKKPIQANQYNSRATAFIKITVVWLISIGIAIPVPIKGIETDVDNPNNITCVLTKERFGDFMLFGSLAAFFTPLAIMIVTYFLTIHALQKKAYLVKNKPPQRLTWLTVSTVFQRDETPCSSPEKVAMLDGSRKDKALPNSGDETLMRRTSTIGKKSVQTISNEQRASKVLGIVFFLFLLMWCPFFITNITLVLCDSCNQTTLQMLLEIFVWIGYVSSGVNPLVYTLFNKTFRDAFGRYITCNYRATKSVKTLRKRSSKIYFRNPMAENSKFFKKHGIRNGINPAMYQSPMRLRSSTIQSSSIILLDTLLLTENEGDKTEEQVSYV
Sequence of human 5-HT7 receptor (P34969 1-432 limits assumed): as the sequence (P34969 1-432 limits assumed) above
T5 sequence (P08684 whole entry): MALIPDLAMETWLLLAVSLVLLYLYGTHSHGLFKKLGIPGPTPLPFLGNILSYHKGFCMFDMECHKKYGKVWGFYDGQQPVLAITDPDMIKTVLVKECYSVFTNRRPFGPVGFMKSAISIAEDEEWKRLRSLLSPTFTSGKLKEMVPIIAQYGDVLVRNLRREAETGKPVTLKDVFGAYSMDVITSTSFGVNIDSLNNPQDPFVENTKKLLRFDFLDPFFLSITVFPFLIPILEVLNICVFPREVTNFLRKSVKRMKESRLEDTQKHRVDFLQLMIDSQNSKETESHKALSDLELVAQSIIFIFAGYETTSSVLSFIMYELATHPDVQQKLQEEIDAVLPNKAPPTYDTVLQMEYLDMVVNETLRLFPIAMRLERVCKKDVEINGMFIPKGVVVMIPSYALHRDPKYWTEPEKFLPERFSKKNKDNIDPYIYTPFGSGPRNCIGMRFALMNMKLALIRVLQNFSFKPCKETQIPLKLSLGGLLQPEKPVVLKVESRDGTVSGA
T8 sequence (P28222 whole entry, species assumed): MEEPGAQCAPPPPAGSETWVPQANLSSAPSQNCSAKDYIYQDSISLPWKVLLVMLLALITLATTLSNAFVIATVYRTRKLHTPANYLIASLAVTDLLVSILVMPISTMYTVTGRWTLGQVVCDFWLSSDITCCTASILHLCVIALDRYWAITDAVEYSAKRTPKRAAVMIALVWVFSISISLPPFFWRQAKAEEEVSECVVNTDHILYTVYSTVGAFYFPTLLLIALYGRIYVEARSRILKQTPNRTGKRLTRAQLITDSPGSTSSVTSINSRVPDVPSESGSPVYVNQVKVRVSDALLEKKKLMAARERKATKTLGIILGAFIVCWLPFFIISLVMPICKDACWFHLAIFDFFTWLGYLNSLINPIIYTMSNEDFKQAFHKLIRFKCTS
T7 sequence (P47898 whole entry, species assumed): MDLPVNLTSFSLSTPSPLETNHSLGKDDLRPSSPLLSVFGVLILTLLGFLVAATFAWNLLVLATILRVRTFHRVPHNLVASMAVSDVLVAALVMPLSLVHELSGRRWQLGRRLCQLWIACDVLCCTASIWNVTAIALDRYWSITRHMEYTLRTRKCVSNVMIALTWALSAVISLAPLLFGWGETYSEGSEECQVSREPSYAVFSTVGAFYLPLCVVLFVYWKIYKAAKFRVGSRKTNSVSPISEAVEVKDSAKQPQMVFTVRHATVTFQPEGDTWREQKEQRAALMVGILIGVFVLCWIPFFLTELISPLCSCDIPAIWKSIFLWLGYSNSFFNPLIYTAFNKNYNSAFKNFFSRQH
T2 sequence (P35462 whole entry): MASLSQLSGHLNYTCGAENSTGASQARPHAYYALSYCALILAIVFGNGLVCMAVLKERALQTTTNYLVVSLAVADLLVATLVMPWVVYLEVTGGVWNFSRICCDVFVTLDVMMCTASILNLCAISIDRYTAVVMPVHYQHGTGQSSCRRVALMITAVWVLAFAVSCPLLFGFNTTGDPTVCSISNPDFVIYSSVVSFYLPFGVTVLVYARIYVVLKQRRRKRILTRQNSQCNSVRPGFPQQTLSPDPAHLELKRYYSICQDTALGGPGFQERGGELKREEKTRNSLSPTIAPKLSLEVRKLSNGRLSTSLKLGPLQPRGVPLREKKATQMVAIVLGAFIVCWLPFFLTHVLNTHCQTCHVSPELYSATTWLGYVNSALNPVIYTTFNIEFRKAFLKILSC
T3 sequence (P21554 whole entry, species assumed): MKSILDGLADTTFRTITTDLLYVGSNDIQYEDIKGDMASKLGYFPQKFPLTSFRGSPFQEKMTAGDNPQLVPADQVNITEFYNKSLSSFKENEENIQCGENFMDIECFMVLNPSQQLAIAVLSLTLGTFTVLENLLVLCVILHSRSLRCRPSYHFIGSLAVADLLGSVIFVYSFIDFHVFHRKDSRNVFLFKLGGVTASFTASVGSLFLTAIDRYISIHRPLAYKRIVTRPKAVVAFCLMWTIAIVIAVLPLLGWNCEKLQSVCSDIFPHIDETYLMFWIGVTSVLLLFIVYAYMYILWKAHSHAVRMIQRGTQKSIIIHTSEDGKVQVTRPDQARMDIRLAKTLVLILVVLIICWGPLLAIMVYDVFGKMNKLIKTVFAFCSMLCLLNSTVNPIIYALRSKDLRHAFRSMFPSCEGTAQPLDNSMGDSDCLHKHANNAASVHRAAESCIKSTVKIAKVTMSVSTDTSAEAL

On to `CCn1cncc1-c1c[nH]c2ccc(OC)cc12.Cl` [1e, 3-(1-Ethyl-1H-imidazol-5-yl)-5-methoxy-1H-indole hydrochloride], for which the Ki in [1] was found to be 0.03 µM. Moreover, the inhibition at 1 µM is 9% in [2]; 8% in [3]; 8% in data set [5]; 6% in data set [6]; 93% in [8]; 9% in data set [9]. Moreover, the inhibition at 1 µM in data set [12] came out at 24%. Besides, in data set [4], the “water solubility in words” value is “water soluble”. The half-inhibitory concentration (IC50) was 0.24 µM in data set [7] and 0.27 µM in data set [16]. The inhibition at 0.01 µM in data set [8] was 6%. In addition, in data set [10], the “cell viability in words, HepG2” value is “the cells remained viable in all tested concentrations”. The “cell viability in words, HEK-293” value in data set [11] is listed as “the cells remained viable in all tested concentrations”. Further, in data set [13], the “function at the human 5-HT7 receptor” value was “full agonists”. For the same compound, the EC50 in [13] worked out at 0.06 µM. Also, the main metabolic pathway result in data set [14] (MS of metabolite M1) is recorded as “hydroxylation”. Moreover, in [14], the CLint scaled at 50 μM was determined as 0.221 L/h/kg. In addition, in data set [15], the “% Inhibition of control binding α1” value came to 5%.

In the case of `CCn1cncc1-c1c[nH]c2ccc(I)cc12` [1o, 3-(1-ethyl-1H-imidazol-5-yl)-5-iodo-1H-indole], in data set [1], the “selectivity over 5-HT1AR” value worked out at 176 fold and the Ki was 0.006 µM. Moreover, the “reversal of MK-801 induced disruption in novel object recognition” value in data set [17] is given as “active; also recorded: dose-dependently reversed MK-801-induced disruption in novel object recognition; also recorded: reversed MK-801 induced novel object recognition impairment”. For the same compound, in [4], the “water solubility in words” value is “water soluble”. Moreover, in data set [8], the inhibition at 1 µM turned out to be 87% and the inhibition at 0.01 µM stood at 7%. Besides, the inhibition at 1 µM in [9] was 7%. For the same compound, the “cell viability in words, HepG2” value in [10] is “toxic for the cells only in the highest concentration (100 μM)”. Also, the “cell viability in words, HEK-293” value in [11] is reported as “toxic for the cells only in the highest concentration (100 μM)”. The inhibition at 1 µM in [12] is 40%. Moreover, in [13], the “function at the human 5-HT7 receptor” value is “full agonists” and the EC50 was determined as 0.019 µM. Moreover, in data set [14], the CLint scaled at 50 μM was determined as 0.378 L/h/kg. In addition, the “blood/plasma ratio compared to LP-44” value in data set [18] (1o 5 mg/kg i.p. vs LP-44 10 mg/kg i.p.) was “three-fold higher”. For the same compound, the “brain/plasma ratio compared to LP-211” value in data set [18] (1o 5 mg/kg i.p. vs LP-211 10 mg/kg i.p.) is on record as 9 times. In [18] (i.p. 5 mg/kg), the Cmax brain was determined as 2723 ng/g, the “Cmax brain (molar)” value was “approx. 8 μM”, the maximum plasma concentration worked out at 749 ng/mL and the “maximum plasma concentration (molar)” value is ~ 2.2 μM. In addition, the “time in which half of the compound was eliminated from the body” value in [18] (i.p. 5 mg/kg) is reported as no more than 90 min. Moreover, the t0.5 brain in [18] (i.p. 5 mg/kg, brain) is reported as 130 min. In addition, the “last sampling time at which measurable” value in [18] (i.p. 5 mg/kg, plasma and brain) is on record as 6 h. In addition, in data set [18] (male, CD-1, mouse, brain, ip, i.p. 5 mg/kg, read-out: MRT brain (converted)), the MRT was 60 min. The Kp in data set [18] (male, CD-1, mouse, brain/plasma, ip, i.p. 5 mg/kg, read-out: brain to plasma ratio) was 6.34. Also, the Tmax in [18] (male, CD-1, mouse, ip, i.p. 5 mg/kg, plasma) is 15 min. The Vd/F in [18] (male, CD-1, mouse, plasma, ip, i.p. 5 mg/kg) came out at 46.6 L/kg. Besides, the MRT in [18] (male, CD-1, mouse, plasma, ip, i.p. 5 mg/kg, read-out: MRT plasma (converted)) is 27 min. The compound also had an IC50 in [16] of 0.17 µM.
